Experiments:
COPD patients = settings: according to the reports (Non-patent documents 7, 8 and patent document 1); cited from earlier work
human neutrophils = assay: LTB4-induced human neutrophil migration (48-well modified Boyden chamber); type: cell-based; settings: test substance 10 μmol/L; 10 nmol/L LTB4
Method: Leukocytes were collected from human peripheral blood samples (20 mL of venous blood was taken by a doctor) were obtained from 4 healthy adults (male). They received sufficient information on the purpose of the experiment and gave informed consent in advance. An equivalent amount of 3% dextran (M.W. 208000) saline solution was added to the heparinized blood thus obtained and the mixture was kept to stand for one hour. Thereafter, the supernatant was collected and centrifuged at 150 g for 5 minutes at 4° C. The supernatant was discarded and the pellet was repeatedly twice haemolysed. To explain in detail, 4 mL of an ice-cooled 0.2% NaCl solution was added, quickly suspended and allowed to stand for 20 to 30 seconds. Thereafter, 4 mL of an ice-cooled 1.6% NaCl solution was added to the suspension solution to return the solution to the isotonic condition. After centrifugation was performed at 150 g for 5 minutes at 4° C., the same treatment was repeated. The cell pellet obtained was finally suspended in a buffer (Hank's solution containing 0.1% FBS) and subjected to an experiment.
This experiment was performed using a 48-well modified Boyden chamber (Neuro Probe). To explain in detail, the wells of the bottom plate of the chamber were filled with 25 μl of vehicle solution containing 10 nmol/L of LTB4. A polycarbonate filter (PVP-free, pore size: 3 μm) was placed on the bottom plate. The top plate of the chamber was mounted and each well of the upper plate was filled with 45 μL of a leukocyte suspension solution (1.0×10^6 cells/mL) prepared with the buffer. Immediately after that, 5 μL of a test substance (10 fold concentration of a final concentration) was added to the wells. […] The numbers of cells were counted in 4 visual fields (×400) per well and the average of them was regarded as the number of migrated cells. Each test substance was evaluated using 3 wells. The average value of these wells was calculated and regarded as the value of each substance.
The average and standard deviation of each group were calculated. […]

[1] = system: PPE-induced pulmonary emphysema model; assay: PPE-induced pulmonary emphysema model in mice; type: in vivo
Method: Eight-week old C57BL strain mice were anaesthetized with isoflurane. PPE (25 μg) was administered once to the lung through a cannula inserted into the trachea through the pharyngolarynx to induce a pulmonary damage. To a non-PPE administration group (normal group), saline was administered instead. In a preventive administration experiment (hereinafter referred to as a “preventive experiment”) of KP-496, drug effect was evaluated on inflammatory cells in BALF 2 days after PPE administration and by histopathological examination of the lung after 10 days. In a therapeutic administration experiment of KP-496 (hereinafter referred to as a “therapeutic experiment”), the drug effect was evaluated by histo-pathological examination of the lung and weight of the organs 14 days after PPE administration.
The medicament administration period was set from the PPE administration date to the day before autopsy in the preventive experiment and set from a predetermined day (KP-496A group: PPE administration date, KP-496B group: 3 days after PPE administration date, KP-496C group: 7 days after PPE administration date) to the day before autopsy in the therapeutic experiment. Inhalation administration of KP-496 was performed in the same manner as in Example 2. Furthermore, the normal group and the control group were allowed to spontaneously inhale saline, instead. A medicament for use in comparison, prednisolone, was orally administered in a dose of 5 mg/kg twice a day. A group consisted of 10 animals.
The animals were anaesthetized with pentobarbital and killed by exsanguination. Immediately after that, BAL of the right and left lungs was performed with 2 ml of saline. In the same manner as in Example 2, the total number of cells and the number of cells according to the cell type in the BALE were determined.
The lung was excised out from the animal killed by exsanguination in the same manner as in the above, the weight of the lung was measured. The lung was fixed in 10 vol % neutral buffered formalin solution. A pathological tissue sample was prepared in accordance in a general way. The degree of the damage of the lung tissue observed was evaluated by scoring in the same manner as in Example 2. Furthermore, the average of alveolar-space area of the entire lung tissue sample was computationally measured with image-processing software.
The average value and standard deviation of each group were calculated. Comparison between the normal group and the control group was performed by the Levene's test for equal variance and then, the t-test was performed depending on the results. To compare the control group and test substance administration groups, equal variance was first confirmed by the Levene's test and then multiple comparisons were performed in accordance with the Dunnett's test. Note that evaluation parameters with unequal variance and the damage score of the lung tissue were analyzed by nonparametric Mann-Whitney test. The significance level employed was […].

[2] = system: vanadium pentoxide-induced bronchitis model; assay: Vanadium pentoxide-induced bronchitis model in mice; type: in vivo; settings: 7 days after vanadium pentoxide; compared with control
Method: Seven-week old C57BL strain male mice were used. The mouse was anaesthetized with isoflurane. Vanadium pentoxide (20 μg) was administered once to the lung through a cannula inserted into the trachea through the pharyngolarynx to induce pathology. To a non-vanadium pentoxide administration group (normal group), saline was administered, instead. KP-496 was administered by inhalation twice a day in the period from the vanadium pentoxide administration date to the day before autopsy, in the same manner as in Example 2. Furthermore, the normal group and the control group were allowed to spontaneously inhale saline in the same manner. A medicament for use in comparison, prednisolone, was orally administered at a dose of 5 mg/kg twice a day in the period from the vanadium pentoxide administration date to the day before autopsy. Note that the normal group consisted of 6 animals and the other group consisted of 10 animals. Each of the mice was anaesthetized with pentobarbital 7 days after vanadium pentoxide administration and killed by bloodletting from the abdominal aorta. The lung was excised out and fixed in 10 vol % neutral buffered formalin solution. […] The obtained value was divided by the circumferential length of the bronchial lumen (obtained in mucosal basal membrane) and the quotient was expressed as a mucus producing region area per millimeter of the bronchus. […]

Compound	respiratory function of COPD patients (COPD patients)	suppression of LTB4-induced neutrophil migration (human neutrophils)	total number of cells in BALF ([1]; 2 days after PPE administration, preventive experiment)	number of eosinophils in BALF ([1]; 2 days after PPE, compared to control group)	weights of the organs (liver, spleen and thymus gland) ([1]; compared to control group)	increase in lung weight ([1]; preventive experiment, 10 days after PPE)	damage score of the lung ([1]; preventive experiment, 10 days after PPE, compared with control group)	body weight change ([1]; preventive experiment, up to 10 days after PPE, compared to control group)	increase of the average of the alveolar-space area ([1]; preventive experiment, compared to control)	increase of PAS positive area (mucus producing region of intrapulmonary bronchial epithelium) [2]
CC1=C(C)C(=O)C(C(CCCCCC(=O)O)c2ccccc2)=C(C)C1=O (centres unmarked) [seratorodast, reference compound]	improves the respiratory function	did not suppress the migration at all								
C[C@]12C=CC(=O)C=C1CC[C@@H]1[C@@H]2[C@@H](O)C[C@@]2(C)[C@H]1CC[C@]2(O)C(=O)CO [prednisolone, reference compound]			4.3±2.1 ×10^5 cells	significantly decreased	significantly decreased	significantly suppressed	significantly decreased	significant reduction compared to the control group	significantly suppressed	significantly suppressed
COc1cc(C(=O)NS(=O)(=O)c2ccccc2C)ccc1Cc1cn(C)c2ccc(NC(=O)OC3CCCC3)cc12 [zafirlukast]	improves the respiratory function									
